Measurements from the supplement of paper PMC10883282.

What was measured:
Experiment in all cases: relative viability vs DMSO control (72 h) (fraction); higher = more viable cells
HT1080 = tested on: HT1080
Method in brief: (§1)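 Sarcoma cell lines were seeded in 384-well plates at densities chosen for 80–90% confluence, then 24 h later given 2.5 µl of serially diluted compound drawn from source plates spanning 10 mM to 0.0002 mM. They were held 72 h at 37 °C, 5% CO2, with 0.1% DMSO vehicle and a 5 µM positive control included. Relative viability was read with ATPLite as percent growth and averaged over up to triplicate wells. Rescaling placed full at 1 and none at 0.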

SW872 = tested on: SW872
Method in brief: as §1

SW1353 = tested on: SW1353
Method in brief: as §1

KHOS-NP = tested on: KHOS-NP
Method in brief: as §1

RD-ES = tested on: RD-ES
Method in brief: as §1

MES-SA = tested on: MES-SA
Method in brief: as §1

SK-ES-1 = tested on: SK-ES-1
Method in brief: as §1

SW684 = tested on: SW684
Method in brief: as §1

SK-LMS-1 = tested on: SK-LMS-1
Method in brief: as §1

G401 = tested on: G401
Method in brief: as §1

VA-ES-BJ = tested on: VA-ES-BJ
Method in brief: as §1

RD = tested on: RD
Method in brief: as §1

O=C(/C=C\n1cnc(-c2cc(C(F)(F)F)cc(C(F)(F)F)c2)n1)NNc1cnccn1 [Selinexor]
Conditions	relative viability
G401, 0.00017 µM	1.07
G401, 0.00051 µM	1.05
G401, 0.00152 µM	1.04
G401, 0.00457 µM	0.985
G401, 0.01372 µM	0.943
G401, 0.04115 µM	0.8726
G401, 0.1235 µM	0.743
G401, 0.3704 µM	0.463
G401, 1.111 µM	0.366
G401, 3.333 µM	0.272
G401, 10 µM	0.235
HT1080, 0.00017 µM	1.11
HT1080, 0.00051 µM	1.14
HT1080, 0.00152 µM	1.13
HT1080, 0.00457 µM	1.11
HT1080, 0.01372 µM	1.082
HT1080, 0.04115 µM	1.088
HT1080, 0.1235 µM	0.814
HT1080, 0.3704 µM	0.375
HT1080, 1.111 µM	0.3301
HT1080, 3.333 µM	0.2689
HT1080, 10 µM	0.2291
KHOS-NP, 0.00017 µM	1.09
KHOS-NP, 0.00051 µM	1.12
KHOS-NP, 0.00152 µM	1.131
KHOS-NP, 0.00457 µM	1.13
KHOS-NP, 0.01372 µM	1.12
KHOS-NP, 0.04115 µM	1.05
KHOS-NP, 0.1235 µM	0.727
KHOS-NP, 0.3704 µM	0.238
KHOS-NP, 1.111 µM	0.184
KHOS-NP, 3.333 µM	0.0993
KHOS-NP, 10 µM	0.0794
MES-SA, 0.00017 µM	1.011
MES-SA, 0.00051 µM	0.985
MES-SA, 0.00152 µM	0.971
MES-SA, 0.00457 µM	0.965
MES-SA, 0.01372 µM	0.911
MES-SA, 0.04115 µM	0.808
MES-SA, 0.1235 µM	0.4844
MES-SA, 0.3704 µM	0.342
MES-SA, 1.111 µM	0.255
MES-SA, 3.333 µM	0.189
MES-SA, 10 µM	0.1447
RD, 0.00017 µM	1.052
RD, 0.00051 µM	1.08
RD, 0.00152 µM	1.09
RD, 0.00457 µM	1.07
RD, 0.01372 µM	1.01
RD, 0.04115 µM	0.943
RD, 0.1235 µM	0.754
RD, 0.3704 µM	0.51007
RD, 1.111 µM	0.404
RD, 3.333 µM	0.304
RD, 10 µM	0.252
RD-ES, 0.00017 µM	0.988
RD-ES, 0.00051 µM	1.02
RD-ES, 0.00152 µM	0.993
RD-ES, 0.00457 µM	0.972
RD-ES, 0.01372 µM	0.949
RD-ES, 0.04115 µM	0.825
RD-ES, 0.1235 µM	0.705
RD-ES, 0.3704 µM	0.602
RD-ES, 1.111 µM	0.5
RD-ES, 3.333 µM	0.3989
RD-ES, 10 µM	0.334
SK-ES-1, 0.00017 µM	1.05
SK-ES-1, 0.00051 µM	1.06
SK-ES-1, 0.00152 µM	1.04
SK-ES-1, 0.00457 µM	1.05
SK-ES-1, 0.01372 µM	0.953
SK-ES-1, 0.04115 µM	0.515
SK-ES-1, 0.1235 µM	0.0598
SK-ES-1, 0.3704 µM	0.014
SK-ES-1, 1.111 µM	0.0115
SK-ES-1, 3.333 µM	0.0084
SK-ES-1, 10 µM	0.013
SK-LMS-1, 0.00017 µM	1.03
SK-LMS-1, 0.00051 µM	1.03
SK-LMS-1, 0.00152 µM	0.98
SK-LMS-1, 0.00457 µM	0.95
SK-LMS-1, 0.01372 µM	0.856
SK-LMS-1, 0.04115 µM	0.736
SK-LMS-1, 0.1235 µM	0.512
SK-LMS-1, 0.3704 µM	0.319
SK-LMS-1, 1.111 µM	0.241
SK-LMS-1, 3.333 µM	0.246
SK-LMS-1, 10 µM	0.234
SW684, 0.00017 µM	1.14
SW684, 0.00051 µM	1.24
SW684, 0.00152 µM	1.23
SW684, 0.00457 µM	1.25
SW684, 0.01372 µM	1.18
SW684, 0.04115 µM	1.17
SW684, 0.1235 µM	0.953
SW684, 0.3704 µM	0.885
SW684, 1.111 µM	0.819
SW684, 3.333 µM	0.754
SW684, 10 µM	0.686
SW872, 0.00017 µM	1.065
SW872, 0.00051 µM	1.07
SW872, 0.00152 µM	1.075
SW872, 0.00457 µM	1.07
SW872, 0.01372 µM	1.06
SW872, 0.04115 µM	0.989
SW872, 0.1235 µM	0.823
SW872, 0.3704 µM	0.752
SW872, 1.111 µM	0.537
SW872, 3.333 µM	0.365
SW872, 10 µM	0.306
SW1353, 0.00017 µM	1.11
SW1353, 0.00051 µM	1.06
SW1353, 0.00152 µM	1.12
SW1353, 0.00457 µM	1.05
SW1353, 0.01372 µM	1.03
SW1353, 0.04115 µM	0.999
SW1353, 0.1235 µM	0.883
SW1353, 0.3704 µM	0.792
SW1353, 1.111 µM	0.672
SW1353, 3.333 µM	0.616
SW1353, 10 µM	0.511
VA-ES-BJ, 0.00017 µM	1.1
VA-ES-BJ, 0.00051 µM	1.09
VA-ES-BJ, 0.00152 µM	1.08
VA-ES-BJ, 0.00457 µM	1.03
VA-ES-BJ, 0.01372 µM	0.953
VA-ES-BJ, 0.04115 µM	0.78
VA-ES-BJ, 0.1235 µM	0.565
VA-ES-BJ, 0.3704 µM	0.318
VA-ES-BJ, 1.111 µM	0.198
VA-ES-BJ, 3.333 µM	0.187
VA-ES-BJ, 10 µM	0.165
